Measurements taken from paper PMC9516332 (Frontiers in Oncology, 2022).
Like-named read-outs stand apart in the source and are kept apart here.

Legend:
Test in all cases: Kinase panel profiling at 1 µmol/L (MSA or IMAP), percentage inhibition
Assay type in all cases: biochemical
[1] = biological target: T1, panel of 255 wild-type kinases (Homo sapiens, UniProt P15735); conditions: read-out: %-inhibition at 1 µmol/L, PHKG2
T1 sequence (P15735 1-406): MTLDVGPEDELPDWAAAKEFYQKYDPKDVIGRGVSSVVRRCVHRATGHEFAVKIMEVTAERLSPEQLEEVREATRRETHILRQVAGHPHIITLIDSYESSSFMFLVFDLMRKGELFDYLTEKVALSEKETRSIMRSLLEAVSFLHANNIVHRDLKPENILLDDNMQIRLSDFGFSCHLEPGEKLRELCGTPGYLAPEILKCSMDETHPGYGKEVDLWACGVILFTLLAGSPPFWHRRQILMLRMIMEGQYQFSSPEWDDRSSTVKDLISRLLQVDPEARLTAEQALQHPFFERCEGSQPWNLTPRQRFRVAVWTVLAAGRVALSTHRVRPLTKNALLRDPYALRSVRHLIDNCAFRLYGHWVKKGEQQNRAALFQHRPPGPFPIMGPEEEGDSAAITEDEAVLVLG

[2] = biological target: panel of 255 wild-type kinases (Homo sapiens, UniProt P23443); conditions: read-out: %-inhibition, p70S6K
[3] = biological target: panel of 255 wild-type kinases (Homo sapiens, UniProt Q8TDX7); conditions: read-out: %-inhibition, NEK7
[4] = biological target: panel of 255 wild-type kinases (Homo sapiens, UniProt Q9HC98); conditions: read-out: %-inhibition, NEK6
[5] = biological target: panel of 255 wild-type kinases (Homo sapiens, UniProt O94804); conditions: read-out: %-inhibition at 1 µmol/L, LOK
[6] = biological target: panel of 255 wild-type kinases (Homo sapiens, UniProt Q8IY84); conditions: read-out: %-inhibition, NIM1K
[7] = biological target: T2, panel of 255 wild-type kinases (Homo sapiens, UniProt Q9NWZ3); conditions: read-out: %-inhibition at 1 µmol/L, IRAK4
T2 sequence (Q9NWZ3 1-460): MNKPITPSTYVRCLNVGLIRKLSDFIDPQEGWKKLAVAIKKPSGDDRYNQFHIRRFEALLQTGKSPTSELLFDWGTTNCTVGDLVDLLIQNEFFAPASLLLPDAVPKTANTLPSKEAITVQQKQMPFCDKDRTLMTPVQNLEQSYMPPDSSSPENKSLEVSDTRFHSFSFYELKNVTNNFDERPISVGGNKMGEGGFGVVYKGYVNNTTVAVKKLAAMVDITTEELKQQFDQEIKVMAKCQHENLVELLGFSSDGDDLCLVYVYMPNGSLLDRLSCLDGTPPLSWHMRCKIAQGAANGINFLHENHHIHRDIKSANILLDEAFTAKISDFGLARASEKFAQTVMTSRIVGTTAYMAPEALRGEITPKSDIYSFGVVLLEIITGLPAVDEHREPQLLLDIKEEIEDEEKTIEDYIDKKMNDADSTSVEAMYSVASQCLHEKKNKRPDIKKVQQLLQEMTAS

[8] = biological target: panel of 255 wild-type kinases (Homo sapiens, UniProt P04629); conditions: read-out: %-inhibition at 1 µmol/L, TRKA
[9] = biological target: panel of 255 wild-type kinases (Homo sapiens, UniProt Q16620); conditions: read-out: %-inhibition at 1 µmol/L, TRKB
[10] = biological target: panel of 255 wild-type kinases (Homo sapiens, UniProt P16591); conditions: read-out: %-inhibition at 1 µmol/L, FER
[11] = biological target: panel of 255 wild-type kinases (Homo sapiens, UniProt Q14289); conditions: read-out: %-inhibition at 1 µmol/L, PYK2
[12] = biological target: T3, panel of 255 wild-type kinases (Homo sapiens, UniProt Q9BXA7); conditions: read-out: %-inhibition at 1 µmol/L, TSSK1
T3 sequence (Q9BXA7 1-367): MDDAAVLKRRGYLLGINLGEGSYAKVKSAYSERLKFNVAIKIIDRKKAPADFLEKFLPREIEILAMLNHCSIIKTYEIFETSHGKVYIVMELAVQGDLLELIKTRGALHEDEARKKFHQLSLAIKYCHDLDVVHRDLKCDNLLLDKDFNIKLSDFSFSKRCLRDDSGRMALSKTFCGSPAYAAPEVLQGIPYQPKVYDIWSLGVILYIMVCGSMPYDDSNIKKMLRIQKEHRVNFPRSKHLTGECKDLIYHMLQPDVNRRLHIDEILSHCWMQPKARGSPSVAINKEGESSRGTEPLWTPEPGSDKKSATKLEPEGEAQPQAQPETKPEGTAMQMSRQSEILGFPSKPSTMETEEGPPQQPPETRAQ

[13] = biological target: T4, panel of 255 wild-type kinases (Homo sapiens, UniProt Q96KB5); conditions: read-out: %-inhibition at 1 µmol/L, PBK
T4 sequence (Q96KB5 1-322): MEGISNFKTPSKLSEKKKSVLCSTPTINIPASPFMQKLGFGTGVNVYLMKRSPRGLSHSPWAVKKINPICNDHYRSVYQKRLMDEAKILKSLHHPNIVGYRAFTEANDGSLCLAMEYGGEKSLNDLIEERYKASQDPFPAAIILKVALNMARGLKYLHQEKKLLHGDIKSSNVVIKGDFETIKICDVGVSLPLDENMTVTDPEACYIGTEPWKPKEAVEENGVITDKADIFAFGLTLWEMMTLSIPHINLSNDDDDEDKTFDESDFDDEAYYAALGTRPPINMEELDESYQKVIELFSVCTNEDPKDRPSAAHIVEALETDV

[14] = kinase PHKG2, 1 µmol/L single concentration
[15] = p70S6K, 1 µmol/L single concentration
[16] = NEK7, 1 µmol/L single concentration
[17] = NEK6, 1 µmol/L single concentration
[18] = kinase LOK, 1 µmol/L single concentration
[19] = NIM1K, 1 µmol/L single concentration
[20] = kinase IRAK4, 1 µmol/L single concentration
[21] = kinase TRKA, 1 µmol/L single concentration
[22] = kinase TRKB, 1 µmol/L single concentration
[23] = kinase FER, 1 µmol/L single concentration
[24] = kinase PYK2, 1 µmol/L single concentration
[25] = kinase TSSK1, 1 µmol/L single concentration
[26] = kinase PBK, 1 µmol/L single concentration

inhibition at 1 µM [1, 14] | inhibition at 1 µM [2, 15] | inhibition at 1 µM [3, 16] | inhibition at 1 µM [4, 17] | inhibition at 1 µM [5, 18] | inhibition at 1 µM [6, 19] | inhibition at 1 µM [7, 20] | inhibition at 1 µM [8, 21] | inhibition at 1 µM [9, 22] | inhibition at 1 µM [10, 23] | inhibition at 1 µM [11, 24] | inhibition at 1 µM [12, 25] | inhibition at 1 µM [13, 26] | SMILES | also measured
-3.26% | 4.72% | 2% | -2.65% | 3.42% | -2.23% | 1.26% | -5% | 3.62% | 4.71% | 2.41% | 0.849% | 0.203% | Cn1cnc2c(F)c(Nc3ccc(Br)cc3F)c(C(=O)NOCCO)cc21 [binimetinib] | 
11% | 33% | -4.37% | -4.7% | 86% | 1.1% | 19% | 6% | 6% | 6.35% | 1.4% | -2.48% | -3.28% | COc1cc2ncnc(Nc3ccc(F)c(Cl)c3)c2cc1NC(=O)/C=C/CN1CCCCC1 [dacomitinib] | 

Further lines, the compound ahead of its results:

SMILES | inhibition at 1 µM [1, 14] | inhibition at 1 µM [2, 15] | inhibition at 1 µM [3, 16] | inhibition at 1 µM [4, 17] | inhibition at 1 µM [5, 18] | inhibition at 1 µM [6, 19] | inhibition at 1 µM [7, 20] | inhibition at 1 µM [8, 21] | inhibition at 1 µM [9, 22] | inhibition at 1 µM [10, 23] | inhibition at 1 µM [11, 24] | inhibition at 1 µM [12, 25] | inhibition at 1 µM [13, 26] | also measured
Cc1nc(NC(=O)N2CCC[C@H]2C(N)=O)sc1-c1ccnc(C(C)(C)C(F)(F)F)c1 [alpelisib] | 1.64% | 9% | 0.399% | 0.343% | -7% | -1.81% | -3.77% | 6.61% | -2.43% | -1.86% | -4% | -5% | -1.24% | 
Cn1cc(-c2cc3c(N4CCN(c5ncc([C@@](C)(N)c6ccc(F)cc6)cn5)CC4)ncnn3c2)cn1 [avapritinib] | 5.4% | 20% | -11% | -1.13% | 54% | 0.427% | 12% | 65% | 48% | 1.71% | 1% | 2.83% | -3% | 
CNC(=O)c1ccc(-c2cnc3ncc(Cc4ccc5ncccc5c4)n3n2)cc1F [capmatinib] |  |  |  |  |  |  |  |  |  |  |  |  |  | inhibition at 1 µM [1]: 0.266%; inhibition at 1 µM [2]: 5.68%; inhibition at 1 µM [3]: -9%; inhibition at 1 µM [4]: -4%; inhibition at 1 µM [5]: 0.859%; inhibition at 1 µM [6]: -2%; inhibition at 1 µM [7]: -0.569%; inhibition at 1 µM [8]: 39%; inhibition at 1 µM [9]: 16%; inhibition at 1 µM [10]: 2.2%; inhibition at 1 µM [11]: -2.25%; inhibition at 1 µM [12]: 3%; inhibition at 1 µM [13]: -4%
